# Assays:
# [1] = tested on: TMD-8 cells; experiment: Anti-Proliferation Assay (MTS), TMD-8 cells; assay type: cell-based; conditions: Homo sapiens, TMD8, treated for 72 hours, MTS cell survival
# Experimental: (§1) Cell survival is determined by a MTS assay. Briefly, cells (i.e., TMD-8 cells or Rec-1 cells) are plated in a 96-well plate, cultured in complete growth medium, and then treated with various drugs and drug combinations. MTS/PMS is added and incubated, followed by assessment of cell viability using the microplate reader. Data is normalized to untreated controls and analyzed with Microsoft Excel.
# (§2) Cell survival was determined by the MTS assay. Briefly, cells (i.e., TMD-8 cells or Rec-1 cells) were plated in a 96-well plate at 2,000-10,000 cells per well, cultured for 24 hours in complete growth medium, and then treated with various drugs and drug combinations for 72 hours. MTS/PMS was added and incubated for 4 hour, followed by assessment of cell viability using the microplate reader (absorbance at 490 nm). Data were normalized to untreated controls and analyzed with Microsoft Excel.
# [2] = tested on: Rec-1 cells; experiment: Anti-Proliferation Assay (MTS), Rec-1 cells; assay type: cell-based; conditions: Homo sapiens, Rec1, treated for 72 hours, MTS cell survival
# Experimental: as §1, §2
smiles,measurement,setting,value
"O=C(c1ccc(Oc2ccccc2)cc1Cl)c1c[nH]c2ncnc(N[C@@H]3CC[C@@H](CO)OC3)c12 [Compound (I), (2-chloro-4-phenoxyphenyl)(4-(((3R,6S)-6-(hydroxymethyl)tetrahydro-2H-pyran-3-yl)amino)-7H-pyrrolo[2,3-d]pyrimidin-5-yl)methanone]",IC50,[1],130 ± 60 nM
same,IC50,[2],180 ± 70 nM

# Source: US11020400B2, “Tetrahydropyranyl amino-pyrrolopyrimidinone and methods of use thereof” (ArQule, Inc., priority 2015, dated 2021)
